Patent EP4467974A1, “NOVEL CHEMOSENSORS AND THEIR USE IN ELECTROCHEMICAL DETECTION METHODS” (Karlsruher Institut für Technologie, priority 2023, dated 2024)
Read-outs that look alike come from different tables or passages of the source.

How the values were obtained:
[1] = cited from earlier work
[2] = Binding affinity (log Ka) of guests for the macrocyclic receptor cucurbit[7]uril; settings: PtC as indicator for CB7 (CB7⊃PtC inclusion complex), result in words
[3] = binding affinity for CB7 (host-guest complex)

| Compound | log Ka [1, 3] | further results |
| --- | --- | --- |
| NCCc1ccc(O)c(O)c1 [dopamine] | 5.0 | – |
| CC(=O)O[C@H]1C[C@@H]2CC[C@@H]3[C@H](CC[C@@]4(C)[C@H]3C[C@H]([N+]3(C)CCCCC3)[C@@H]4OC(C)=O)[C@@]2(C)C[C@@H]1[N+]1(C)CCCCC1 [pancuronium bromide] | – | log Ka [1]: 10.23 |
| NCCc1c[nH]c2ccc(O)cc12 [serotonin] | 4.8 | – |
| OCCOCCOCCn1cc2[n+](n1)[Pt-2]([Cl])([Cl])[n+]1ccccc1-2 [PtC] | – | binding affinity [2]: intermediate |
